Source: PMC9135679 (Cell Reports, 2022)

Assays:
[1] = target: DQ5 (HLA-DQA1*01:01/DQB1*05:01) (Homo sapiens, UniProt P01909+P01920, A157S/A45G/A70V/C70R/D89V/E106S/E118A/E183D/E77G/F83G/G63E/H151Q/H199R/H252R/H253Q/I129T/I235V/I88M/INS77G/K197Q/L107V/L117V/L119Y/L178F/L71W/L74F/L85Q/L91A/L98M/M46L/N214S/P87R/Q116E/Q256R/Q57E/Q76K/R102G/R240Q/R75S/R78G/S102Y/S185I/S41F/S97I/T103A/T109R/T121G/T122I/T172A/T86R/V148I/V68A/V73E/Y34C/Y58G/Y62H); test: Fluorescence polarization competition peptide binding assay, DQ5; conditions: Figure 5E, described in words
[2] = system: PBMC from COVID-19, vaccinated, seronegative and pre-pandemic donors; test: IFN-γ ELISpot, ex vivo PBMC; format: cell-based, human; conditions: of 10 convalescent COVID-19 donors analyzed
[3] = system: in vitro expanded T cell lines; test: IFN-γ ELISpot, T cells expanded in vitro with peptides or peptide pools; format: cell-based, human; conditions: HCoV S pool-expanded lines from 3 convalescent COVID-19 donors; pool deconvolution; 1 μg/mL per peptide; positive by DFR2X
[4] = system: T cell clones with partially HLA-matched APCs (LG2, 9068, MN605); test: T cell clone stimulation, IFN-γ ELISA; format: cell-based, human; conditions: for dose-dependent reactivity relative to the SARS-CoV-2 peptide: 10-fold dilution series 1-10^−4 μg/mL, 24 hours

Substance: RVAGRSAIEDILFSKLV [229E-115]
- binding of homolog peptides to DQ5 relative to S811–831 [1]: substantially weaker binding

Substance: S986–1,006: SARS-CoV-2 spike candidate epitope, overlapping peptides 198/199
- donors showing ex vivo responses [2]: 1 donors
- donors recognizing the pair of overlapping peptides [3]: single

Substance: SALEDLLFSKVVTSGLG [NL63-146]
- dose-dependent reactivity relative to the SARS-CoV-2 peptide ([4]; […]): approximately 10 fold weaker
- binding of homolog peptides to DQ5 relative to S811–831 [1]: substantially weaker binding

Substance: SSSRSFFEDLLFDKVKL [HKU1-151]
- dose-dependent reactivity compared with S811–826 ([4]; clone #49, cyan group (DQ5, CoV2/HKU1)): similar
- dose-dependent reactivity relative to the SARS-CoV-2 peptide ([4]; clone #120, gold group (DP4, CoV2/HKU1)): approximately 10 fold weaker
- binding of homolog peptides to DQ5 relative to S811–831 [1]: binds more strongly than SARS-CoV-2
